Results taken from patent US20130324412A1, “N-ALKOXYAMIDES OF 6-(SUBSTITUTED PHENYL)-4-AMINOPICOLINATES AND 2-(SUBSTITUTED PHENYL)-6-AMINO-4-PYRIMIDINECARBOXYLATES AND THEIR USE AS SELECTIVE HERBICIDES FOR CROPS” (DOW AGROSCIENCES LLC, priority 2009, published 2013).
Like-named read-outs stand apart in the source and are kept apart here.

What was measured:
Type in all cases: in vivo
[1] = tested on: corn (Zea mays); experiment: General postemergence herbicidal activity, corn; conditions: post-emergence, 336 h, read-out: ZEAMX % Visual Injury; for plant injury at 140 g/ha: 140 g ai/ha; for plant injury at 17.5 g/ha: 17.5 g ai/ha
Summary of the method: (§1)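 Greenhouse plants at first to second true leaf stage sprayed overhead at 187 L/ha in acetone/DMSO with crop oil concentrate and surfactant, at a high rate plus ½× to 1/16× serial dilutions. Injury rated visually after 14 d against solvent-blank controls, 0 (none) to 100% (complete kill).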

[2] = tested on: velvetleaf (Abutilon theophrasti); experiment: General postemergence herbicidal activity, velvetleaf; conditions: post-emergence, 336 h, read-out: ABUTH % Visual Injury; for pest or weed control at 140 g/ha: 140 g ai/ha; for pest or weed control at 17.5 g/ha: 17.5 g ai/ha
Summary of the method: as §1

[3] = tested on: lambsquarters (Chenopodium album); experiment: General postemergence herbicidal activity, lambsquarters; conditions: post-emergence, 336 h, read-out: CHEAL % Visual Injury; for pest or weed control at 140 g/ha: 140 g ai/ha; for pest or weed control at 17.5 g/ha: 17.5 g ai/ha
Summary of the method: as §1

[4] = tested on: wild buckwheat (Polygonum convululus); experiment: General postemergence herbicidal activity, wild buckwheat; conditions: post-emergence, 336 h, read-out: POLCO % Visual Injury; for pest or weed control at 140 g/ha: 140 g ai/ha; for pest or weed control at 17.5 g/ha: 17.5 g ai/ha
Summary of the method: as §1

[5] = tested on: sugar beet (Beta vulgaris); experiment: Postemergence herbicidal activity in sugar beet, crop; set-up: unit not given here; conditions: visual rating after 21 d, probit analysis, dose to kill or control 20 percent
Method: (§2) Seeds of sugar beet and the desired weed species were planted in Sun Gro MetroMix® 360 planting mixture, which typically has a pH of 6.0 to 6.8 and an organic matter content of about 30 percent, in plastic pots with a surface area of 95 cm^2. When required to ensure good germination and healthy plants, a fungicide treatment and/or other chemical or physical treatment was applied. The plants were grown for 15-28 d in a greenhouse with an approximate 15-h photoperiod which was maintained at about 23-29° C. during the day and 22-28° C. during the night. Nutrients and water were added on a regular basis and supplemental lighting was provided with overhead metal halide 1000-Watt lamps as necessary. The sugar beet plants were utilized for testing when they reached the third or fourth true leaf stage. The weed species were utilized at the fourth true leaf stage.
(§3) A weighed amount, determined by the highest rate to be tested, of each test compound was dissolved in 4 mL of a 97:3 v/v mixture of acetone and DMSO to obtain concentrated stock solutions. […] The concentrated stock solutions obtained were diluted with 20 mL of an aqueous mixture containing acetone, water and Agri-Dex crop oil concentrate, in a 16.7:82.1:1.25 v/v ratio to obtain spray solutions containing the highest application rates. Additional application rates were obtained by serial dilution of 12 mL of the high rate solution into a solution containing 2 mL of 97:3 v/v mixture of acetone and DMSO and 10 mL of an aqueous mixture containing acetone, water and Agri-Dex crop oil concentrate, in a 16.7:82.1:1.25 v/v ratio to obtain ½×, ¼×, ⅛× and 1/16× rates of the high rate. Compound requirements are based upon a 12 mL application volume at a rate of 187 L/ha. Formulated compounds were applied to the plant material with an overhead Mandel track sprayer equipped with 8002E nozzles calibrated to deliver 187 L/ha over an application area of 0.503 m^2 at a spray height of 18 inches (43 cm) above the average plant canopy height. Control plants were sprayed in the same manner with the solvent blank.
(§4) The treated plants and control plants were placed in a greenhouse as described above and watered by sub-irrigation to prevent wash-off of the test compounds. After 21 d, the condition of the test plants as compared with that of the untreated plants was determined visually and scored on a scale of 0 to 100 percent where 0 corresponds to no injury and 100 corresponds to complete kill.
(§5) By applying the well-accepted probit analysis as described by J. Berkson in Journal of the American Statistical Society 1953, 48, 565, and by D. Finney in “Probit Analysis” Cambridge University Press (1952), the above data can be used to calculate GR20 and GR80 values, which are defined as growth reduction factors that correspond to the effective dose of herbicide required to kill or control 20 percent or 80 percent, respectively, of a target plant.

[6] = tested on: lambsquarters (Chenopodium album); experiment: Postemergence herbicidal activity in sugar beet, lambsquarters; set-up: unit not given here; conditions: sugar beet test, visual rating after 21 d, probit analysis, dose to kill or control 80 percent
Method: as §2, §3, §4, §5

[7] = tested on: purple deadnettle (Lamium purpureum); experiment: Postemergence herbicidal activity in sugar beet, purple deadnettle; set-up: unit not given here; conditions: sugar beet test, visual rating after 21 d, probit analysis, dose to kill or control 80 percent
Method: as §2, §3
as §4, with “kill. […]” for “kill.”

[8] = tested on: winter oilseed rape (canola) (Brassica napus); experiment: Postemergence herbicidal activity in oilseed rape (canola), crop; set-up: unit not given here; conditions: visual rating after 21 d, probit analysis, dose to kill or control 20 percent
Method: as §2, with “oilseed rape (canola)” for “sugar beet”
as §3, §4, §5

[9] = tested on: lambsquarters (Chenopodium album); experiment: Postemergence herbicidal activity in oilseed rape (canola), lambsquarters; set-up: unit: g ai/ha; conditions: oilseed rape (canola) test, visual rating after 21 d, probit analysis, dose to kill or control 80 percent
Method: as §2, with “oilseed rape (canola)” for “sugar beet”
as §3, §4, §5

[10] = tested on: purple deadnettle (Lamium purpureum); experiment: Postemergence herbicidal activity in oilseed rape (canola), purple deadnettle; set-up: unit not given here; conditions: oilseed rape (canola) test, visual rating after 21 d, probit analysis, dose to kill or control 80 percent
Method: as §2, with “oilseed rape (canola)” for “sugar beet”
as §3, §4, §5

[11] = postemergence, after 14 d, 0 = no injury, 100 = complete kill
[12] = 70 g ai/ha, postemergence, after 14 d, 0 = no injury, 100 = complete kill
[13] = 280 g ai/ha, postemergence, after 14 d, 0 = no injury, 100 = complete kill

Row | Compound | BEAVA GR20 [5] | CHEAL GR80 [6] | LAMPU GR80 [7] | BRSNW GR20 [8] | CHEAL GR80 [9] | LAMPU GR80 [10] | plant injury at 70 g/ha [1, 12] [%] | pest or weed control at 70 g/ha [2, 12] [%] | pest or weed control at 70 g/ha [3, 12] [%] | pest or weed control at 70 g/ha [4, 12] [%] | also measured
1 | CCONC(=O)c1nc(-c2ccc(Cl)c(OC)c2F)cc(N)c1Cl [Compound 4, 4-Amino-3-chloro-6-(4-chloro-2-fluoro-3-methoxyphenyl)-N-ethoxypicolinamide] | >140 | <8.75 | <4.38 | >140 | 11 | <4.38 | – | – | – | – | plant injury at 140 g/ha [1, 11]: 0%; pest or weed control at 140 g/ha [2, 11]: 100%; pest or weed control at 140 g/ha [3, 11]: 100%; pest or weed control at 140 g/ha [4, 11]: 100%
2 | C/C=C/CONC(=O)c1nc(-c2ccc(Cl)c(OC)c2F)cc(N)c1Cl [Compound 30, (E)-4-Amino-N-(2-butenyloxy)-3-chloro-6-(4-chloro-2-fluoro-3-methoxy-phenyl)picolinamide] | >140 | <8.75 | <4.38 | >70 | <8.75 | <4.38 | 50 | 100 | 100 | 100 | –
3 | COc1c(Cl)ccc(-c2cc(N)c(Cl)c(C(=O)NOC/C=C/Cl)n2)c1F [Compound 31, (E)-4-Amino-3-chloro-6-(4-chloro-2-fluoro-3-methoxyphenyl)-N-(3-chloro-2-propenyl-oxy)picolinamide] | >140 | <8.75 | – | – | – | – | 5 | 100 | 100 | 100 | –
4 | C=CCONC(=O)c1nc(-c2ccc(Cl)c(OC)c2F)c(F)c(N)c1Cl [Compound 39, N-(2-Propenyloxy)-4-amino-3-chloro-6-(4-chloro-2-fluoro-3-methoxyphenyl)-5-fluoropicolinamide] | – | – | – | >70 | 49 | <8.75 | – | – | – | – | plant injury at 17.5 g/ha [1, 11]: 45%; pest or weed control at 17.5 g/ha [2, 11]: 100%; pest or weed control at 17.5 g/ha [3, 11]: 100%; pest or weed control at 17.5 g/ha [4, 11]: 100%
5 | COc1c(Cl)ccc(-c2cc(N)c(Cl)c(C(=O)NOCc3cnc(Cl)s3)n2)c1F [Compound 41, 4-Amino-3-chloro-6-(4-chloro-2-fluoro-3-methoxyphenyl)-N-((2-chlorothiazol-5-yl)-methoxy)picolinamide] | 136 | 30 | <4.38 | – | – | – | 5 | 100 | 100 | 100 | –
6 | COc1c(Cl)ccc(-c2nc(C(=O)NOC3CCCCO3)c(Cl)c(N)c2F)c1F (centres unmarked) [Compound 48, 4-Amino-3-chloro-6-(4-chloro-2-fluoro-3-methoxyphenyl)-5-fluoro-N-(tetrahydro-2H-pyran-2-yloxy)picolinamide] | – | – | – | >70 | 18 | <4.38 | – | – | – | – | plant injury at 140 g/ha [1, 11]: 0%; pest or weed control at 140 g/ha [2, 11]: 100%; pest or weed control at 140 g/ha [3, 11]: 100%; pest or weed control at 140 g/ha [4, 11]: 100%
7 | COc1c(Cl)ccc(-c2cc(N)c(Cl)c(C(=O)NO)n2)c1F [Compound 57, 4-amino-3-chloro-6-(4-chloro-2-fluoro-3-methoxyphenyl)-N-hydroxypicolinamide] | – | – | – | – | – | – | – | – | – | – | plant injury at 17.5 g/ha [1, 11]: 0%; pest or weed control at 17.5 g/ha [2, 11]: 90%; pest or weed control at 17.5 g/ha [3, 11]: 95%; pest or weed control at 17.5 g/ha [4, 11]: 95%
8 | COc1c(N)nc(-c2ccc(Cl)c(F)c2F)nc1C(=O)NO [Compound 58, 6-Amino-2-(4-chloro-2,3-difluorophenyl)-N-hydroxy-5-methoxypyrimidine-4-carboxamide] | – | – | – | – | – | – | – | – | – | – | plant injury at 280 g/ha [1, 13]: 0%; pest or weed control at 280 g/ha [2, 13]: 90%; pest or weed control at 280 g/ha [3, 13]: 100%; pest or weed control at 280 g/ha [4, 13]: 100%
9 | C=CCONC(=O)c1nc(-c2ccc(Cl)c(OC)c2F)cc(N)c1Cl [Compound 59, sodium 2-propenyloxy(4-amino-3-chloro-6-(4-chloro-2-fluoro-3-methoxyphenyl)picolinoyl)amide] | – | – | – | – | – | – | – | – | – | – | plant injury at 70 g/ha [1]: 10%; pest or weed control at 70 g/ha [2]: 100%; pest or weed control at 70 g/ha [3]: 95%; pest or weed control at 70 g/ha [4]: 85%
